Results from ChEMBL document CHEMBL1201862, “PubChem BioAssay data set” (2004).
Several values for one entry are separate records, joined by “and”; a condition that tells them apart may be missing. Identical values can stand only once.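 Five concentrations, 48 hours, 96-well plates. At the GI50, growth is halved.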 Activity calls are given as the source filed them. Cut-off read from the data, not from the text of the source: active = GI50 up to about 1.1 µM and inactive = higher.

How the values were obtained:
Test in all cases: NCI-60 cell line screen, 48 h
CCRF-CEM = test system: CCRF-CEM
MCF7 = test system: MCF7
SN12C = test system: SN12C
HCC 2998 = test system: HCC 2998
SF-268 = test system: SF-268
LOX IMVI = test system: LOX IMVI
MDA-MB-231 = test system: MDA-MB-231
RPMI-8226 = test system: RPMI-8226
NCI-H460 = test system: NCI-H460
HOP-62 = test system: HOP-62
DMS-273 = test system: DMS-273
KM12 = test system: KM12
SF-295 = test system: SF-295
U-251 = test system: U-251
T47D = test system: T47D
SK-MEL-2 = test system: SK-MEL-2
HOP-18 = test system: HOP-18
OVCAR-3 = test system: OVCAR-3
SW-620 = test system: SW-620
KM-20L2 = test system: KM-20L2
XF498 = test system: XF498
Hs-578T = test system: Hs-578T
K562 = test system: K562
MDA-MB-435 = test system: MDA-MB-435
COLO 205 = test system: COLO 205
MDA-N = test system: MDA-N
HT-29 = test system: HT-29
HL-60 = test system: HL-60
OVCAR-5 = test system: OVCAR-5
MOLT-4 = test system: MOLT-4
M14 = test system: M14
NCI/ADR-RES = test system: NCI/ADR-RES
SR = test system: SR
RXF 393 = test system: RXF 393
HOP-92 = test system: HOP-92
DU-145 = test system: DU-145
HCT-15 = test system: HCT-15
DLD-1 = test system: DLD-1
786-0 = test system: 786-0
SK-OV-3 = test system: SK-OV-3
EKVX = test system: EKVX
OVCAR-8 = test system: OVCAR-8
NCI-H23 = test system: NCI-H23
IGROV-1 = test system: IGROV-1
UACC-62 = test system: UACC-62
A549 = test system: A549
CAKI-1 = test system: CAKI-1
TK-10 = test system: TK-10
SK-MEL-5 = test system: SK-MEL-5
UO-31 = test system: UO-31
M19-MEL = test system: M19-MEL
LXFL 529 = test system: LXFL 529
NCI-H522 = test system: NCI-H522
SF-539 = test system: SF-539
HCT-116 = test system: HCT-116
OVCAR-4 = test system: OVCAR-4
SNB-75 = test system: SNB-75
SNB-78 = test system: SNB-78
UACC-257 = test system: UACC-257
ACHN = test system: ACHN
Malme-3M = test system: Malme-3M
SK-MEL-28 = test system: SK-MEL-28
NCI-H226 = test system: NCI-H226
SNB-19 = test system: SNB-19
A498 = test system: A498

CSc1nc(C)c(Br)c(=O)n1C1OC(COC(C)=O)C(OC(C)=O)C(OC(C)=O)C1OC(C)=O (stereo not drawn)
GI50 (CCRF-CEM): > 100 µM (inactive)
GI50 (MCF7): > 100 µM (inactive)
GI50 (SN12C): > 100 µM (inactive)
GI50 (HCC 2998): > 100 µM (inactive)
GI50 (SF-268): 34.1 µM (inactive) and 19.6 µM (inactive)
GI50 (LOX IMVI): > 100 µM (inactive)
GI50 (MDA-MB-231): 63.8 µM (inactive)
GI50 (RPMI-8226): > 100 µM (inactive)
GI50 (NCI-H460): > 100 µM (inactive) and 97.1 µM (inactive)
GI50 (HOP-62): 26.8 µM (inactive) and 22 µM (inactive)
GI50 (DMS-273): 27.7 µM (inactive)
GI50 (KM12): > 100 µM (inactive)
GI50 (SF-295): 24.2 µM (inactive) and 26.9 µM (inactive)
GI50 (U-251): 39.1 µM (inactive) and 22.4 µM (inactive)
GI50 (T47D): > 100 µM (inactive)
GI50 (SK-MEL-2): 56.5 µM (inactive)
GI50 (HOP-18): 60.4 µM (inactive)
GI50 (OVCAR-3): > 100 µM (inactive)
GI50 (SW-620): > 100 µM (inactive)
GI50 (KM-20L2): > 100 µM (inactive)
GI50 (XF498): 21.2 µM (inactive)
GI50 (Hs-578T): 42.9 µM (inactive)
GI50 (K562): > 100 µM (inactive)
GI50 (MDA-MB-435): > 100 µM (inactive)
GI50 (COLO 205): > 100 µM (inactive)
GI50 (MDA-N): > 100 µM (inactive)
GI50 (HT-29): > 100 µM (inactive)
GI50 (HL-60): > 100 µM (inactive)
GI50 (OVCAR-5): > 100 µM (inactive) and 94.2 µM (inactive)
GI50 (MOLT-4): > 100 µM (inactive)
GI50 (M14): > 100 µM (inactive)
GI50 (NCI/ADR-RES): > 100 µM (inactive)
GI50 (SR): > 100 µM (inactive)
GI50 (RXF 393): 20.5 µM (inactive) and 19.9 µM (inactive)
GI50 (HOP-92): 20.1 µM (inactive) and 13.6 µM (inactive)
GI50 (DU-145): > 100 µM (inactive)
GI50 (HCT-15): > 100 µM
GI50 (DLD-1): > 100 µM (inactive)

Cc1nc2ccccc2c(=O)n1/N=C(\N=N\c1cccc(Cl)c1)c1ccccc1Cl
GI50 (CCRF-CEM): > 10 µM (inactive)
GI50 (786-0): 83 µM (inactive)
GI50 (SN12C): > 100 µM (inactive)
GI50 (SK-OV-3): 25.8 µM (inactive)
GI50 (EKVX): 69.8 µM (inactive)
GI50 (LOX IMVI): > 100 µM (inactive)
GI50 (OVCAR-8): > 100 µM (inactive)
GI50 (NCI-H23): 64.9 µM (inactive)
GI50 (IGROV-1): > 10 µM (inactive)
GI50 (RPMI-8226): > 100 µM (inactive)
GI50 (UACC-62): > 100 µM (inactive)
GI50 (NCI-H460): 49.9 µM (inactive)
GI50 (HOP-62): 37.8 µM (inactive)
GI50 (DMS-273): 50.2 µM (inactive)
GI50 (A549): > 100 µM (inactive)
GI50 (SF-295): 30.4 µM (inactive)
GI50 (U-251): 37.9 µM (inactive)
GI50 (HOP-18): 1.48 µM (inactive)
GI50 (SW-620): > 100 µM (inactive)
GI50 (KM-20L2): > 100 µM (inactive)
GI50 (CAKI-1): > 100 µM (inactive)
GI50 (XF498): 2.29 µM (inactive)
GI50 (K562): 0.57 µM (active)
GI50 (TK-10): 49.4 µM (inactive)
GI50 (SK-MEL-5): > 100 µM (inactive)
GI50 (COLO 205): > 10 µM (inactive)
GI50 (HT-29): > 100 µM (inactive)
GI50 (HL-60): > 10 µM (inactive)
GI50 (MOLT-4): > 10 µM (inactive)
GI50 (M14): > 100 µM (inactive)
GI50 (UO-31): 99.3 µM (inactive)
GI50 (M19-MEL): > 100 µM (inactive)
GI50 (LXFL 529): > 10 µM (inactive)
GI50 (NCI-H522): 29 µM (inactive)
GI50 (SF-539): 25.3 µM (inactive)
GI50 (HCT-116): 36 µM (inactive)
GI50 (RXF 393): 21.7 µM (inactive)
GI50 (HOP-92): 29.9 µM (inactive)
GI50 (HCT-15): > 100 µM
GI50 (DLD-1): 75.5 µM (inactive)

COc1ccc(O)cc1C(O)c1ccccc1 (stereo not drawn)
GI50 (CCRF-CEM): > 100 µM (inactive)
GI50 (786-0): > 100 µM (inactive)
GI50 (SN12C): > 100 µM (inactive)
GI50 (HCC 2998): > 100 µM (inactive)
GI50 (SF-268): > 100 µM (inactive)
GI50 (SK-OV-3): > 100 µM (inactive)
GI50 (EKVX): > 100 µM (inactive)
GI50 (LOX IMVI): > 100 µM (inactive)
GI50 (OVCAR-8): > 100 µM (inactive)
GI50 (NCI-H23): > 100 µM (inactive)
GI50 (IGROV-1): > 100 µM (inactive)
GI50 (UACC-62): > 100 µM (inactive)
GI50 (OVCAR-4): > 100 µM (inactive)
GI50 (NCI-H460): > 100 µM (inactive)
GI50 (HOP-62): > 100 µM (inactive)
GI50 (DMS-273): > 100 µM (inactive)
GI50 (A549): > 100 µM (inactive)
GI50 (KM12): > 100 µM (inactive)
GI50 (SF-295): > 100 µM (inactive)
GI50 (U-251): > 100 µM (inactive)
GI50 (SK-MEL-2): > 100 µM (inactive)
GI50 (HOP-18): > 100 µM (inactive)
GI50 (OVCAR-3): > 100 µM (inactive)
GI50 (SNB-75): > 100 µM (inactive)
GI50 (SW-620): > 100 µM (inactive)
GI50 (KM-20L2): > 100 µM (inactive)
GI50 (SNB-78): > 100 µM (inactive)
GI50 (CAKI-1): > 100 µM (inactive)
GI50 (XF498): > 100 µM (inactive)
GI50 (UACC-257): > 100 µM (inactive)
GI50 (K562): > 100 µM (inactive)
GI50 (TK-10): > 100 µM (inactive)
GI50 (SK-MEL-5): > 100 µM (inactive)
GI50 (COLO 205): > 100 µM (inactive)
GI50 (HT-29): > 100 µM (inactive)
GI50 (HL-60): > 100 µM (inactive)
GI50 (OVCAR-5): > 100 µM (inactive)
GI50 (MOLT-4): > 100 µM (inactive)
GI50 (ACHN): > 100 µM (inactive)
GI50 (M14): > 100 µM (inactive)
GI50 (UO-31): > 100 µM (inactive)
GI50 (M19-MEL): > 100 µM (inactive)
GI50 (LXFL 529): > 100 µM (inactive)
GI50 (Malme-3M): > 100 µM (inactive)
GI50 (NCI-H522): > 100 µM (inactive)
GI50 (SK-MEL-28): > 100 µM (inactive)
GI50 (SF-539): > 100 µM (inactive)
GI50 (HCT-116): > 100 µM (inactive)
GI50 (RXF 393): > 100 µM (inactive)
GI50 (HOP-92): > 100 µM (inactive)
GI50 (NCI-H226): > 100 µM (inactive)
GI50 (SNB-19): > 100 µM (inactive)
GI50 (HCT-15): > 100 µM
GI50 (A498): > 100 µM (inactive)
GI50 (DLD-1): > 100 µM (inactive)
